In this assay the target is PKM2 (Homo sapiens, UniProt P14618). The assay is described as follows: PKM2 activation biochemical assay (AC50 / max. response vs fructose 1,6-bisphosphate). Conditions: for Max. Resp. (%): % maximum response in a biochemical assay as compared with Fructose 1,6-bisphosphate.
Where [1] appears, read: biochemical assay, read-out: PKM2 AC50.

Read-outs that look alike come from different tables or passages of the source.

PKM2, sequence (P14618 whole entry): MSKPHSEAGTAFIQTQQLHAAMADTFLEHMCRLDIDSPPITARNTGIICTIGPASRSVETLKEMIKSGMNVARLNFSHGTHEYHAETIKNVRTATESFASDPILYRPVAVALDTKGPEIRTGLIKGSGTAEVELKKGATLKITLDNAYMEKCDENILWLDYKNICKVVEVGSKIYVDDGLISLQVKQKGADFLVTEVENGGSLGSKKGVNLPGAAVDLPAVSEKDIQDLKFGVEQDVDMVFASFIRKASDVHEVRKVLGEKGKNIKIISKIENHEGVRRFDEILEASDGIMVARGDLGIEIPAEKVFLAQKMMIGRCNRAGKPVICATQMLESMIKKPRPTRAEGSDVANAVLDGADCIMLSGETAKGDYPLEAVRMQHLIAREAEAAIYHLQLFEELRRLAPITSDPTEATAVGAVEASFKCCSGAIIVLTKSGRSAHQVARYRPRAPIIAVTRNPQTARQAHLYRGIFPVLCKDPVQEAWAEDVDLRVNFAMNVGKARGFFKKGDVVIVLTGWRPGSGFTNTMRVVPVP

The AC50 is the concentration giving half of the maximal activity seen. Take `O=C(c1cc(C2CC2)n[nH]1)N(CCC(F)(F)F)Cc1ccc(O)cc1F` [Compound 129]: the AC50 was 10.5 µM.
Turning to `O=C(c1cc(C(F)(F)F)n[nH]1)N(CCC(F)(F)F)Cc1ccc(O)cc1F` [Compound 130], the “Max. Resp. (%)” value is listed as 100%. Further, the AC50 under setting [1] turned out to be 1 µM.
Turning to `O=C(c1cc(C(F)(F)F)n[nH]1)N(Cc1ccc(O)cc1F)C1CCCC1` [Compound 132], the “Max. Resp. (%)” value was 100%. The AC50 under setting [1] is 0.213 µM.
With `NCCN(Cc1ccc(O)cc1F)C(=O)c1cc(C(F)(F)F)n[nH]1` [Compound 133], the “Max. Resp. (%)” value is listed as 100%. Moreover, the concentration at half-maximal activity (AC50) under setting [1] is 1.27 µM.
On to `Nc1ccc(CN(CC2CCC2)C(=O)c2cc(C(F)(F)F)n[nH]2)c(Cl)c1` [Compound 134], for which the “Max. Resp. (%)” value is recorded as 100%. Moreover, the AC50 under setting [1] was determined as 1.07 µM.
Consider `O=C(c1cc(C(F)(F)F)n[nH]1)N(Cc1cccc2[nH]ccc12)NC1CCC1` [Compound 135], for which the “Max. Resp. (%)” value was 100%. The AC50 under setting [1] is 0.068 µM.
On to `O=C(c1cc(C(F)(F)F)n[nH]1)N(Cc1cccc(F)c1O)CC1CCC1` [Compound 136], for which the “Max. Resp. (%)” value stood at 100%. The AC50 under setting [1] was 0.38 µM.
Turning to `O=C(c1cc(C(F)(F)F)n[nH]1)N(CCO)Cc1ccc(O)cc1F` [Compound 137], the “Max. Resp. (%)” value stood at 70%. Besides, the half-maximal activity concentration (AC50) under setting [1] was found to be 6.2 µM.
As for `O=C(c1cc(C(F)(F)F)n[nH]1)N(Cc1ccc(O)cc1F)C1CCCCC1` [Compound 139], the “Max. Resp. (%)” value was 100%. For the same molecule, under setting [1], the AC50 came out at 0.152 µM.
Take `O=C(c1cc(C(F)(F)F)n[nH]1)N(CCC1CC1)Cc1ccc(O)cc1F` [Compound 140]: the “Max. Resp. (%)” value is 100%. Under setting [1], the AC50 was 0.032 µM.
Consider `O=C(c1cc(C(F)(F)F)n[nH]1)N(Cc1cccc(Cl)c1O)CC1CCC1` [Compound 141], for which the “Max. Resp. (%)” value came out at 100%. Besides, the concentration at half-maximal activity (AC50) under setting [1] stood at 6.5 µM.
As for `COCCN(Cc1ccc(O)cc1F)C(=O)c1cc(C(F)(F)F)n[nH]1` [Compound 142], the “Max. Resp. (%)” value worked out at 100%. The AC50 under setting [1] stood at 1.19 µM.
Turning to `CCN(CC)CCN(Cc1ccc(O)cc1F)C(=O)c1cc(C(F)(F)F)n[nH]1` [Compound 143], the “Max. Resp. (%)” value turned out to be 100%. For the same molecule, under setting [1], the concentration at half-maximal activity (AC50) turned out to be 0.108 µM.
On to `O=C(c1cc(C(F)(F)F)n[nH]1)N(Cc1cn[nH]c1)Cc1cccc2[nH]cnc12` [Compound 144], for which the half-maximal activity concentration (AC50) under setting [1] was determined as 25 µM.
The same measure, in the same setting: for `NCc1ccccc1CN(CC1CCC1)C(=O)c1cc(C(F)(F)F)n[nH]1` [Compound 145] the value was 25.5 µM.
On to `CCN(CC)CCN(Cc1ccccc1F)C(=O)c1cc(C(F)(F)F)n[nH]1` [Compound 148], for which the AC50 came out at 0.505 µM and the “Max. Resp. (%)” value is given as 100%.
Take `O=C(c1cc(C(F)(F)F)n[nH]1)N(CCC1CC1)Cc1ccccc1F` [Compound 149]: the “Max. Resp. (%)” value is recorded as 100%. Moreover, the AC50 under setting [1] was 2 µM.
For the molecule `O=C(c1cc(C(F)(F)F)n[nH]1)N(Cc1ccccc1F)CC1CCOC1` (stereo not drawn) [Compound 150], the “Max. Resp. (%)” value is listed as 68%. Moreover, the half-maximal activity concentration (AC50) under setting [1] turned out to be 16 µM.
As for `CCN1CCC(N(Cc2ccccc2F)C(=O)c2cc(C(F)(F)F)n[nH]2)C1` (stereo not drawn) [Compound 152], the “Max. Resp. (%)” value stood at 68%. For the same molecule, the half-maximal activity concentration (AC50) under setting [1] was determined as 13.5 µM.
With `O=C(c1cc(C(F)(F)F)n[nH]1)N(Cc1ccccc1F)C1CCCCC1` [Compound 153], the “Max. Resp. (%)” value is reported as 57%. The concentration at half-maximal activity (AC50) under setting [1] came out at 19 µM.
For `CCN(CC)CCN(Cc1cccc(N)c1)C(=O)c1cc(C(F)(F)F)n[nH]1` [Compound 154] the same measures were 100% and 1.43 µM.
In the case of `CCNCCN(Cc1ccccc1F)C(=O)c1cc(C(F)(F)F)n[nH]1` [Compound 155], the “Max. Resp. (%)” value is listed as 100%. For the same molecule, the half-maximal activity concentration (AC50) under setting [1] was determined as 2.15 µM.
As to `O=C(c1cc(C(F)(F)F)n[nH]1)N(CCN1CCCC1)Cc1ccccc1F` [Compound 158], the “Max. Resp. (%)” value is 100%. Also, the AC50 under setting [1] turned out to be 0.265 µM.
Turning to `CCN(CC)CCN(Cc1ccccc1Cl)C(=O)c1cc(C(F)(F)F)n[nH]1` [Compound 159], the “Max. Resp. (%)” value was determined as 100%. Under setting [1], the half-maximal activity concentration (AC50) was 0.073 µM.
On to `CCN(CC)CCN(Cc1cccc2[nH]cnc12)C(=O)c1cc(C(F)(F)F)n[nH]1` [Compound 160], for which the “Max. Resp. (%)” value came to 100%. The AC50 under setting [1] was found to be 0.825 µM.
Take `CCN(CC)CCN(Cc1cccc2[nH]ccc12)C(=O)c1cc(C(F)(F)F)n[nH]1` [Compound 161]: the “Max. Resp. (%)” value came out at 100%. Moreover, under setting [1], the concentration at half-maximal activity (AC50) came to 0.076 µM.
Regarding `O=C(c1cc(C(F)(F)F)n[nH]1)N(CCN1CCCC1)Cc1ccccc1Cl` [Compound 162], the activity was half-maximal at 0.107 µM (AC50) and the “Max. Resp. (%)” value is given as 100%.
For `O=C(c1cc(C(F)(F)F)n[nH]1)N(CCN1CCCC1)Cc1cccc2nc[nH]c12` [Compound 163], the “Max. Resp. (%)” value is 100%. In addition, the AC50 under setting [1] was found to be 1.08 µM.
In the case of `O=C(c1cc(C(F)(F)F)n[nH]1)N(CCN1CCCC1)Cc1cccc2[nH]ccc12` [Compound 164], the “Max. Resp. (%)” value turned out to be 100%. The concentration at half-maximal activity (AC50) under setting [1] came to 0.113 µM.
As to `O=C(c1cc(C(F)(F)F)n[nH]1)N(CCN1CCCC1)Cc1ccc(Cl)cc1Cl` [Compound 165], the “Max. Resp. (%)” value worked out at 50%. Besides, the AC50 under setting [1] stood at 45 µM.
In the same order, the values of `CCN(CC)CCN(Cc1cccc(Cl)c1Cl)C(=O)c1cc(C(F)(F)F)n[nH]1` [Compound 167] are 100% and 0.186 µM.
In the same order, the values of `CCN(CC)CCN(Cc1cc(Cl)ccc1Cl)C(=O)c1cc(C(F)(F)F)n[nH]1` [Compound 168] are 100% and 0.097 µM.
As for `CCN(CC)CCN(Cc1c(Cl)cccc1Cl)C(=O)c1cc(C(F)(F)F)n[nH]1` [Compound 169], the “Max. Resp. (%)” value is listed as 100%. In addition, under setting [1], the AC50 is 0.066 µM.
As to `CCN(CC)CCN(Cc1ccc(F)cc1Cl)C(=O)c1cc(C(F)(F)F)n[nH]1` [Compound 170], the activity was half-maximal at 0.505 µM (AC50) and the “Max. Resp. (%)” value amounted to 100%.
Consider `CCN(CC)CCN(Cc1cc(F)ccc1Cl)C(=O)c1cc(C(F)(F)F)n[nH]1` [Compound 171], for which the AC50 amounted to 0.088 µM and the “Max. Resp. (%)” value is recorded as 100%.
As for `CCN(CC)CCN(Cc1c(F)cccc1Cl)C(=O)c1cc(C(F)(F)F)n[nH]1` [Compound 172], the “Max. Resp. (%)” value came to 100%. Further, the AC50 under setting [1] worked out at 0.094 µM.
With `O=C(c1cc(C(F)(F)F)n[nH]1)N(CCN1CCCCC1)Cc1ccccc1Cl` [Compound 173], the “Max. Resp. (%)” value was 100%. The AC50 under setting [1] is 0.066 µM.
Take `O=C(c1cc(C(F)(F)F)n[nH]1)N(CCN1CCOCC1)Cc1ccccc1Cl` [Compound 174]: the “Max. Resp. (%)” value was 100%. The AC50 under setting [1] was 1.49 µM.
`CCN(CC)CCN(Cc1ccccc1Cl)C(=O)c1cc(Br)n[nH]1` [Compound 175]: the half-maximal activity concentration (AC50) turned out to be 0.305 µM and the “Max. Resp. (%)” value is recorded as 100%.
As to `O=C(c1cc(C(F)(F)F)n[nH]1)N(CCN1CCCC1)Cc1c(F)cccc1Cl` [Compound 177], the “Max. Resp. (%)” value stood at 100%. In addition, the AC50 under setting [1] was 0.18 µM.
On to `O=C(c1cc(C(F)(F)F)n[nH]1)N(CCN1CCCC1)Cc1c(Cl)cccc1Cl` [Compound 178], for which the “Max. Resp. (%)” value turned out to be 100%. For the same molecule, the AC50 under setting [1] worked out at 0.126 µM.
Turning to `O=C(c1cc(C(F)(F)F)n[nH]1)N(CCN1CCCCC1)Cc1c(F)cccc1Cl` [Compound 179], the “Max. Resp. (%)” value is recorded as 100%. The concentration at half-maximal activity (AC50) under setting [1] is 0.133 µM.
On to `O=C(c1cc(C(F)(F)F)n[nH]1)N(CCN1CCCCC1)Cc1c(Cl)cccc1Cl` [Compound 180], for which the “Max. Resp. (%)” value stood at 100%. In addition, the AC50 under setting [1] worked out at 0.154 µM.
For `CC(CN(Cc1ccccc1Cl)C(=O)c1cc(C(F)(F)F)n[nH]1)N1CCCC1` (stereo not drawn) [Compound 181] the same measures were 100% and 0.43 µM.
Consider `CCN(CC)CCN(Cc1cccc(F)c1Cl)C(=O)c1cc(C(F)(F)F)n[nH]1` [Compound 182], for which the AC50 was found to be 0.109 µM and the “Max. Resp. (%)” value was 100%.
As for `CCN(CC)CCN(Cc1cc(N)ccc1Cl)C(=O)c1cc(C(F)(F)F)n[nH]1` [Compound 183], the “Max. Resp. (%)” value is given as 100%. Further, the half-maximal activity concentration (AC50) under setting [1] stood at 0.185 µM.
In the same order, the values of `CCN(CC)CCN(Cc1ccccc1C(C)C)C(=O)c1cc(C(F)(F)F)n[nH]1` [Compound 184] are 85% and 1.95 µM.
In the same order, the values of `CCN(CC)CCCN(Cc1ccccc1Cl)C(=O)c1cc(C(F)(F)F)n[nH]1` [Compound 185] are 53% and 1.75 µM.
For `CN(C)CCCN(Cc1ccccc1Cl)C(=O)c1cc(C(F)(F)F)n[nH]1` [Compound 186], the “Max. Resp. (%)” value is given as 100%. Under setting [1], the concentration at half-maximal activity (AC50) came out at 0.375 µM.
For `CN(C)CCN(Cc1ccccc1Cl)C(=O)c1cc(C(F)(F)F)n[nH]1` [Compound 187] the same measures were 100% and 0.295 µM.
As for `CC1CC(C)CN(CCN(Cc2ccccc2Cl)C(=O)c2cc(C(F)(F)F)n[nH]2)C1` (stereo not drawn) [Compound 188], the “Max. Resp. (%)” value amounted to 60%. Also, the concentration at half-maximal activity (AC50) under setting [1] turned out to be 0.046 µM.
For `O=C(c1cc(C(F)(F)F)n[nH]1)N(CCN1CCCCCC1)Cc1ccccc1Cl` [Compound 189], the “Max. Resp. (%)” value was 100%. The AC50 under setting [1] stood at 0.024 µM.
With `CC1CCN(CCN(Cc2ccccc2Cl)C(=O)c2cc(C(F)(F)F)n[nH]2)CC1` [Compound 190], the “Max. Resp. (%)” value is 100%. Besides, the AC50 under setting [1] worked out at 0.042 µM.
In the same order, the values of `CC1CCCN(CCN(Cc2ccccc2Cl)C(=O)c2cc(C(F)(F)F)n[nH]2)C1` (stereo not drawn) [Compound 191] are 100% and 0.029 µM.
In the same order, the values of `CC1CCCCN1CCN(Cc1ccccc1Cl)C(=O)c1cc(C(F)(F)F)n[nH]1` (stereo not drawn) [Compound 192] are 100% and 0.104 µM.
On to `CCN(CC)CCN(Cc1ccccc1Cl)C(=O)c1[nH]nc(Cl)c1F` [Compound 193], for which the “Max. Resp. (%)” value was 58%. Besides, the AC50 under setting [1] worked out at 14 µM.
For `O=C(c1cc(C(F)(F)F)n[nH]1)N(CCN1CCCCCC1)Cc1ccc(O)cc1Cl` [Compound 194], the “Max. Resp. (%)” value is 100%. Under setting [1], the AC50 was 0.043 µM.

The record behind these values is patent publication US20200237766A1, “PKM2 ACTIVATORS IN COMBINATION WITH REACTIVE OXYGEN SPECIES FOR TREATMENT OF CANCER” (TOLERO PHARMACEUTICALS, INC., priority 2017, published 2020).
